# Source: US11053204B2, “Pyrimidinyloxy benzene derivatives as herbicides” (FMC Corporation, priority 2015, dated 2021)
# How the values were obtained:
# Type in all cases: in vivo
# [1] = test system: Italian ryegrass (Lolium multiflorum); experiment: Test A preemergence, visual injury rating; conditions: for Plant response rating, Ryegrass, Italian: 31 g ai/ha, 0 to 100 scale, 0 no effect, 100 complete control; for pest or weed control at 125 g/ha: Lolium multiflorum, pre-emergence, 240 h, read-out: Ryegrass, Italian plant response rating
# Summary of the method: (§1)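 Injury scores run from 0, no effect, to 100, complete control, judged by eye against untreated plants roughly 10 days after treatment. Chemicals carried a surfactant in a non-phytotoxic solvent and went onto loam–sand soil preemergence or onto one- to two-leaf seedlings postemergence.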
# [2] = test system: barnyardgrass (Echinochloa crus-galli); experiment: Test A preemergence, visual injury rating; conditions: for Plant response rating, Barnyardgrass: 31 g ai/ha, 0 to 100 scale, 0 no effect, 100 complete control; for pest or weed control at 125 g/ha: Echinochloa crus-galli, pre-emergence, 240 h, read-out: Barnyardgrass plant response rating
# Summary of the method: as §1
# [3] = test system: giant foxtail (Setaria faberii); experiment: Test A preemergence, visual injury rating; conditions: for Plant response rating, Foxtail, Giant: 31 g ai/ha, 0 to 100 scale, 0 no effect, 100 complete control; for pest or weed control at 125 g/ha: Setaria faberi, pre-emergence, 240 h, read-out: Foxtail, Giant plant response rating
# Summary of the method: as §1
# [4] = test system: kochia (Kochia scoparia); experiment: Test A preemergence, visual injury rating; conditions: for Plant response rating, Kochia: 31 g ai/ha, 0 to 100 scale, 0 no effect, 100 complete control; for pest or weed control at 125 g/ha: Bassia scoparia, pre-emergence, 240 h, read-out: Kochia plant response rating
# Summary of the method: as §1
# [5] = test system: pigweed (Amaranthus retroflexus); experiment: Test A preemergence, visual injury rating; conditions: for Plant response rating, Pigweed: 31 g ai/ha, 0 to 100 scale, 0 no effect, 100 complete control; for pest or weed control at 125 g/ha: Amaranthus retroflexus, pre-emergence, 240 h, read-out: Pigweed plant response rating
# Summary of the method: as §1
# [6] = test system: ragweed (common ragweed, Ambrosia elatior); experiment: Test A preemergence, visual injury rating; conditions: for Plant response rating, Ragweed: 31 g ai/ha, 0 to 100 scale, 0 no effect, 100 complete control; for pest or weed control at 125 g/ha: Ambrosia artemisiifolia, pre-emergence, 240 h, read-out: Ragweed plant response rating
# Summary of the method: as §1
# [7] = test system: Italian ryegrass (Lolium multiflorum); experiment: Test A postemergence, visual injury rating; conditions: 0 is no effect, 100 is complete control; for Ryegrass, Italian plant response rating: 31 g ai/ha, 0 to 100 scale, approximately 10 days; for pest or weed control at 125 g/ha: Lolium multiflorum, post-emergence, 240 h, read-out: Ryegrass, Italian plant response rating (0 to 100 scale)
# Summary of the method: as §1
# [8] = test system: barnyardgrass (Echinochloa crus-galli); experiment: Test A postemergence, visual injury rating; conditions: 0 is no effect, 100 is complete control; for Barnyardgrass plant response rating: 31 g ai/ha, 0 to 100 scale, approximately 10 days; for pest or weed control at 125 g/ha: Echinochloa crus-galli, post-emergence, 240 h, read-out: Barnyardgrass plant response rating (0 to 100 scale)
# Summary of the method: as §1
# [9] = test system: blackgrass (Alopecurus myosuroides); experiment: Test A postemergence, visual injury rating; conditions: 0 is no effect, 100 is complete control; for Blackgrass plant response rating: 31 g ai/ha, 0 to 100 scale, approximately 10 days; for pest or weed control at 125 g/ha: Alopecurus myosuroides, post-emergence, 240 h, read-out: Blackgrass plant response rating (0 to 100 scale)
# Summary of the method: as §1
# [10] = test system: corn (Zea mays); experiment: Test A postemergence, visual injury rating; conditions: 0 is no effect, 100 is complete control; for Corn plant response rating: 31 g ai/ha, 0 to 100 scale, approximately 10 days; for plant injury at 125 g/ha: Zea mays, post-emergence, 240 h, read-out: Corn plant response rating (0 to 100 scale)
# Summary of the method: as §1
# [11] = test system: galium (catchweed bedstraw, Galium aparine); experiment: Test A postemergence, visual injury rating; conditions: 0 is no effect, 100 is complete control; for Galium plant response rating: 31 g ai/ha, 0 to 100 scale, approximately 10 days; for pest or weed control at 125 g/ha: Galium, post-emergence, 240 h, read-out: Galium plant response rating (0 to 100 scale)
# Summary of the method: as §1
# [12] = test system: giant foxtail (Setaria faberii); experiment: Test A postemergence, visual injury rating; conditions: 0 is no effect, 100 is complete control; for Foxtail, Giant plant response rating: 31 g ai/ha, 0 to 100 scale, approximately 10 days; for pest or weed control at 125 g/ha: Setaria faberi, post-emergence, 240 h, read-out: Foxtail, Giant plant response rating (0 to 100 scale)
# Summary of the method: as §1
# [13] = test system: kochia (Kochia scoparia); experiment: Test A postemergence, visual injury rating; conditions: 0 is no effect, 100 is complete control; for Kochia plant response rating: 31 g ai/ha, 0 to 100 scale, approximately 10 days; for pest or weed control at 125 g/ha: Bassia scoparia, post-emergence, 240 h, read-out: Kochia plant response rating (0 to 100 scale)
# Summary of the method: as §1
# [14] = test system: pigweed (Amaranthus retroflexus); experiment: Test A postemergence, visual injury rating; conditions: 0 is no effect, 100 is complete control; for Pigweed plant response rating: 31 g ai/ha, 0 to 100 scale, approximately 10 days; for pest or weed control at 125 g/ha: Amaranthus retroflexus, post-emergence, 240 h, read-out: Pigweed plant response rating (0 to 100 scale)
# Summary of the method: as §1
# [15] = test system: ragweed (common ragweed, Ambrosia elatior); experiment: Test A postemergence, visual injury rating; conditions: 0 is no effect, 100 is complete control; for Ragweed plant response rating: 31 g ai/ha, 0 to 100 scale, approximately 10 days; for pest or weed control at 125 g/ha: Ambrosia artemisiifolia, post-emergence, 240 h, read-out: Ragweed plant response rating (0 to 100 scale)
# Summary of the method: as §1
# [16] = test system: wheat (Triticum aestivum); experiment: Test A postemergence, visual injury rating; conditions: 0 is no effect, 100 is complete control; for Wheat plant response rating: 31 g ai/ha, 0 to 100 scale, approximately 10 days; for plant injury at 125 g/ha: Triticum aestivum, post-emergence, 240 h, read-out: Wheat plant response rating (0 to 100 scale)
# Summary of the method: as §1
# [17] = test system: barnyardgrass (Echinochloa crus-galli); experiment: Test B flooded paddy test, plant response rating; conditions: 250 g ai/ha, Flood, scale of 0 to 100 where 0 is no effect and 100 is complete control, 13 to 15 days; for pest or weed control at 250 g/ha: Echinochloa crus-galli, 312 h
# Summary of the method: (§2)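 Compound was added to standing water 3 cm above soil, flood maintained, and plants held in a greenhouse before visual scoring against controls at 13 to 15 days.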
# [18] = test system: ducksalad (Heteranthera limosa); experiment: Test B flooded paddy test, plant response rating; conditions: 250 g ai/ha, Flood, scale of 0 to 100 where 0 is no effect and 100 is complete control, 13 to 15 days; for pest or weed control at 250 g/ha: Heteranthera limosa, 312 h
# Summary of the method: as §2
# [19] = test system: rice (Oryza sativa); experiment: Test B flooded paddy test, plant response rating; conditions: 250 g ai/ha, Flood, scale of 0 to 100 where 0 is no effect and 100 is complete control, 13 to 15 days; for plant injury at 250 g/ha: Oryza sativa, 312 h
# Summary of the method: as §2
# [20] = test system: sedge, umbrella (small-flower umbrella sedge, Cyperus difformis); experiment: Test B flooded paddy test, plant response rating; conditions: 250 g ai/ha, Flood, scale of 0 to 100 where 0 is no effect and 100 is complete control, 13 to 15 days; for pest or weed control at 250 g/ha: Cyperus difformis, 312 h
# Summary of the method: as §2
# [21] = 125 g ai/ha, 0 to 100 scale (0 no effect, 100 complete control)
Compound,"Plant response rating, Ryegrass, Italian [1]","Plant response rating, Barnyardgrass [2]","Plant response rating, Foxtail, Giant [3]","Plant response rating, Kochia [4]","Plant response rating, Pigweed [5]","Plant response rating, Ragweed [6]","Ryegrass, Italian plant response rating [7]",Barnyardgrass plant response rating [8],Blackgrass plant response rating [9],Corn plant response rating [10],Galium plant response rating [11],"Foxtail, Giant plant response rating [12]",Kochia plant response rating [13],Pigweed plant response rating [14],Ragweed plant response rating [15],Wheat plant response rating [16],"pest or weed control at 125 g/ha [1, 21] [%]","pest or weed control at 125 g/ha [2, 21] [%]","pest or weed control at 125 g/ha [3, 21] [%]","pest or weed control at 125 g/ha [4, 21] [%]",also measured
COc1cccc(Oc2ncc(Cl)cn2)c1C(C)=O [Compound 51],0,0,0,0,0,0,0,0,0,0,0,0,0,0,0,0,,,,,"Ryegrass, Italian plant response rating [1, 21]: 0; Barnyardgrass plant response rating [2, 21]: 0; Foxtail, Giant plant response rating [3, 21]: 0; Kochia plant response rating [4, 21]: 0; Pigweed plant response rating [5, 21]: 0; Ragweed plant response rating [6, 21]: 0; Ryegrass, Italian plant response rating (0 to 100 scale) ([7]; 125 g ai/ha): 0; Barnyardgrass plant response rating (0 to 100 scale) ([8]; 125 g ai/ha): 0; Blackgrass plant response rating (0 to 100 scale) ([9]; 125 g ai/ha): 0; Corn plant response rating (0 to 100 scale) ([10]; 125 g ai/ha): 0; Galium plant response rating (0 to 100 scale) ([11]; 125 g ai/ha): 10; Foxtail, Giant plant response rating (0 to 100 scale) ([12]; 125 g ai/ha): 0; Kochia plant response rating (0 to 100 scale) ([13]; 125 g ai/ha): 0; Pigweed plant response rating (0 to 100 scale) ([14]; 125 g ai/ha): 0; Ragweed plant response rating (0 to 100 scale) ([15]; 125 g ai/ha): 0; Wheat plant response rating (0 to 100 scale) ([16]; 125 g ai/ha): 0; Plant response rating, Barnyardgrass [17]: 15; Plant response rating, Ducksalad [18]: 0; Plant response rating, Rice [19]: 15; Plant response rating, Sedge, Umbrella [20]: 0"
O=C(OCCC(F)(F)F)c1cc(C(F)(F)F)ccc1Oc1ncc(Cl)cn1 [Compound 53],0,0,0,0,0,0,0,0,0,0,0,0,0,0,0,0,0,0,0,0,"pest or weed control at 125 g/ha [5, 21]: 0%; pest or weed control at 125 g/ha [6, 21]: 0%; pest or weed control at 125 g/ha ([7]; 125 g ai/ha): 0%; pest or weed control at 125 g/ha ([8]; 125 g ai/ha): 0%; pest or weed control at 125 g/ha ([9]; 125 g ai/ha): 0%; plant injury at 125 g/ha ([10]; 125 g ai/ha): 0%; pest or weed control at 125 g/ha ([11]; 125 g ai/ha): 0%; pest or weed control at 125 g/ha ([12]; 125 g ai/ha): 0%; pest or weed control at 125 g/ha ([13]; 125 g ai/ha): 0%; pest or weed control at 125 g/ha ([14]; 125 g ai/ha): 0%; pest or weed control at 125 g/ha ([15]; 125 g ai/ha): 0%; plant injury at 125 g/ha ([16]; 125 g ai/ha): 0%; pest or weed control at 250 g/ha [17]: 0%; pest or weed control at 250 g/ha [18]: 0%; plant injury at 250 g/ha [19]: 0%; pest or weed control at 250 g/ha [20]: 0%"
Cc1ccc(Oc2ncc(Cl)cn2)c(C(=O)OCCC(F)(F)F)c1 [Compound 54],0,0,0,0,0,0,0,0,0,0,0,0,0,0,0,0,0,0,0,0,"pest or weed control at 125 g/ha [5, 21]: 0%; pest or weed control at 125 g/ha [6, 21]: 0%; pest or weed control at 125 g/ha ([7]; 125 g ai/ha): 0%; pest or weed control at 125 g/ha ([8]; 125 g ai/ha): 0%; pest or weed control at 125 g/ha ([9]; 125 g ai/ha): 0%; plant injury at 125 g/ha ([10]; 125 g ai/ha): 0%; pest or weed control at 125 g/ha ([11]; 125 g ai/ha): 0%; pest or weed control at 125 g/ha ([12]; 125 g ai/ha): 0%; pest or weed control at 125 g/ha ([13]; 125 g ai/ha): 0%; pest or weed control at 125 g/ha ([14]; 125 g ai/ha): 0%; pest or weed control at 125 g/ha ([15]; 125 g ai/ha): 0%; plant injury at 125 g/ha ([16]; 125 g ai/ha): 0%; pest or weed control at 250 g/ha [17]: 0%; pest or weed control at 250 g/ha [18]: 0%; plant injury at 250 g/ha [19]: 0%; pest or weed control at 250 g/ha [20]: 0%"
